{"source": "patent US20040018210A1", "about": "“Cholesterol-lowering agent” (priority 2001, published 2004)", "data": [{"test_system": "T9A4 human hepatic cells", "assay": "In vitro analysis of the hypocholesterolaemic effect: de novo synthesis of cholesterol measured by incorporation of C14-acetate", "assay_type": "cell-based", "details": "main purified oxylanosterol molecules", "description": "In the present context, the hypocholesterolaemic effect of the present product is evaluated in a qualitative manner on the model of T9A4 human hepatic cells cultured in vitro. Although it is known that such results cannot be transferred directly to man in vivo, they nevertheless provide useful indications. The hypocholesterolaemic effect is evaluated by measurement of the de novo synthesis of cholesterol on human hepatic cells in culture by measuring the incorporation of C^14-acetate. A means of evaluation of this de novo synthesis is described in a method presented below.\nT9A4 human hepatic cells are grown on LCM medium (Biofluids, Rockville, Md.) at 37° C. under 3.5% CO2. The cells are seeded in 24-well culture boxes and incubated to confluence with 1 mM C14-acetate (1 mCi/mol, Amersham) for 20 hours in the absence (control) or in the presence of the extract rich in oxygenated derivatives of lanosterol obtained from fungi and/or purified fractions, dissolved in methanol.\nA lipid extraction is carried out by incubation in a hexane:isopropanol (3:2) mixtures for 30 minutes at ambient temperature. The extract is then dried under nitrogen and then redissolved in hexane and subjected to thin layer high performance chromatography (Merck, Darmstadt, Germany) with a hexane:diethyl ether:acetic acid (75:25:1) mixture as the solvent. The cholesterol neosynthesis is determined by measuring the incorporation of C^14-acetate within the cholesterol with the aid of an imager (Camberra Packard, Zurich, Switzerland) and is expressed in % of the control.\nID50 represents the dose which inhibits the cholesterol synthesis by 50%. It can be seen that the various extracts have a considerable hypocholesterolaemic activity.", "units": {"ID50": "μq/ml"}, "values": [{"smiles": "C/C(C=O)=C\\CC[C@@H](C)[C@H]1CC[C@@]2(C)C3=CC[C@H]4C(C)(C)C(=O)CC[C@]4(C)C3=CC[C@]12C", "note": "[Ganoderal A]", "ID50": 7}, {"smiles": "C/C(=C\\CC[C@@H](C)[C@H]1CC[C@@]2(C)C3=CC[C@H]4C(C)(C)[C@@H](O)CC[C@]4(C)C3=CC[C@]12C)C(=O)O", "note": "[Ganoderic acid Y]", "ID50": 0.5}, {"smiles": "C/C(=C\\CC[C@@H](C)[C@H]1CC[C@@]2(C)C3=CC[C@H]4C(C)(C)C(=O)CC[C@]4(C)C3=CC[C@]12C)CO", "note": "[Ganoderol A]", "ID50": 1}, {"smiles": "C/C(=C\\CC[C@@H](C)[C@H]1CC[C@@]2(C)C3=CC[C@H]4C(C)(C)[C@@H](O)CC[C@]4(C)C3=CC[C@]12C)CO", "note": "[Ganoderol B]", "ID50": 10}]}]}
